Data reported in paper PMC11874377, “Fungal-derived methyldeoxaphomins target Plasmodium falciparum segregation through the inhibition of PfActin1” (Proceedings of the National Academy of Sciences of the …, 2025).
Where two headings read alike, the source gives them in different places.

Experiments:
Dd2-Pol δ parent line = assay: Resistant parasite phenotyping and cross resistance, SYBR green I EC50 assay, parent line; format: cell-based, Plasmodium falciparum; conditions: strain Dd2-Pol δ -parent, read-out: EC50 (mean ± SEM)
Description: (§1) Cloning by limiting dilution was then performed to isolate individual lines from the bulk population. Due to the multiple mutations identified in the first biological replicate, we isolated four clones from this bulk culture as compared to two clones each from the second and third replicates. These clones were phenotyped via a SYBR green I-based dose–response assay (Table 2 and Fig. 2B). […] The DNA of these clones was then extracted and subjected to whole-genome sequencing.
(§2) Resistant parasite phenotyping and cross resistance measurement
(§3) The EC50 assay was performed at 1% parasitemia, 1% hematocrit with SYBR green I in 96-well plates. The highest final concentration of the methyldeoxaphomin NPDG-F was set at 100 μM. Briefly, the compound was subjected to a 3-fold serial dilution with ten dilution points. Three technical replicates were set up at each dilution point. The Dd2-Pol δ parent line and the resistant parasites at 2% hematocrit and 1% parasitemia were added to the drug media at 1:1 ratio. The plate was incubated at 37°C for 72 hours in a chamber filled with a hypoxic gas mixture (3% oxygen, 5% carbon dioxide, and 92% nitrogen). After incubation, the cells were lysis with lysis buffer (20 mM Tris-HCL, 0.08% saponin, 5 mM EDTA, and 0.8% Triton X-100) containing SYBR green I (10,000X, Thermo Fisher, cat # S7563) overnight. Fluorescence was measured at 485nm excitation and 530nm emission using a PHERAstar FSX plate reader (BMG Labtech, Germany). Dose response curves were graphed with Prism 9 Version 9.5.1.
3D structural analysis of the mutations and docking studies
The crystal structure of PfActin1 with accession number 6TU4 (resolution 2.60 Ang) (Vahokoski et al., 2022) was obtained from the Protein Data Bank (PDB). This structure of PfActin1 contains ligands Jasplakinolide and ADP with a coordinating magnesium ion.
Only chain A was used for the docking experiment. […] Schrodinger maestro software (Schrödinger, LLC) was used to build NPDG-F with the proper stereochemistry using the x-ray structure determined for analog NPDG-A (vide supra). […]

P. falciparum = assay: Isobologram assay with NPDG-F; format: cell-based, Plasmodium falciparum
Description: To further explore the relationship of NPDG-F with established actin-interfering drugs, an isobologram study was performed (Fig. 3). NPDG-F was added in combination with four inhibtors known to interfere with actin polymerization including a formin inhibitor SMIFH2, cofilin inhibitor SZ-3, F-actin targeting compound jasplakinolide, and G-actin targeting latrunculin B. The frontline antimalarial DHA was also added as a nonactin inhibitor control. After dose–response curves were generated (Fig. 3A), the fractional inhibitory concentrations (FICs) of NPDG-F and the combination drug were calculated and graphed. […]
Plasmodium blood stage culture
Parasite culture in the Chakrabarti lab was maintained following a modified Trager and Jensen protocol (Trager & Jensen, 1976) as previously described (Lee et al., 2021) with RPMI 1640 with 25 mM HEPES pH 7.4, 26 mM NaHCO3, 15 mg/L hypoxanthine, 0.5% Albumax II, 25 mg/L gentamycin, and 2% dextrose. Parasites were grown with human A+ erythrocytes obtained from Florida OneBlood. Cultures were kept in an incubator with 5% […]
Antiplasmodial activity screening
SYBR Green I-based fluorescence assay was performed as previously described (Lee et al., 2021) following protocols by Smilkstein et. al. (Smilkstein et al., 2004). Asynchronous Dd2 parasites were added to serially diluted compounds and incubated for 72 h at 5% CO2, 95% air at 37°C. Plates were then frozen at -80°C, thawed, and incubated for one hour with 1x SYBR Green I in a lysis buffer (20 mM Tris-HCL, 0.08% saponin, 5 mM EDTA, and 0.8% Triton X-100). Fluorescence was then read on a Synergy Neo2 multimode reader (BioTek Winsooki, VT). Compound dose response curves and EC50 determination was performed using CDD Vault normalized to 10 µM CQ and vehicle […]
For isobologram assessment, inhibitors were tested using a 1:2 dilution with starting concentrations selected as 40 nM for DHA, 100 µM Latrunculin B, 100 µM SMIFH2, and 40 nM for jasplakinolide. These concentrations were selected to provide 2-3 points above […]
EC50s. The test inhibitor methyldeoxaphomin NPDG-F was then added in combination with the aforementioned inhibitors at concentrations ranging from 10 to 0.3125 µM. Dose-response curves were then generated for the available conditions where EC50s could be determined. The fractional inhibitor concentration of both compounds was then determined as described (Fivelman et al., 2004) for the available points and graphed on a scale of 0-1 also using Graphpad Prism version 10. […]

[1] = tested on: in vitro evolved NPDG-F-resistant Dd2-Pol δ clones (PfActin1 mutations); assay: Resistant parasite phenotyping and cross resistance, SYBR green I EC50 assay, NPDG-F-resistant clones; format: cell-based, Plasmodium falciparum; conditions: for EC50: read-out: EC50 (mean ± SEM)
Description: as §1
To investigate whether NPDG-F has the same mode of action as cytochalasin D, we tested our clones for sensitivity to both cytochalasin D and jasplakinolide.
as §2
as §3, with “9.5.1. […]” for “9.5.1.”

barbed end of F-actin = conditions: read-out: binding affinity Kd; cited from earlier work

C/C1=C\[C@H](C)C[C@H](C)OC(=O)C[C@H](c2ccc(O)cc2)NC(=O)[C@@H](Cc2c(Br)[nH]c3ccccc23)N(C)C(=O)[C@H](C)NC(=O)[C@@H](C)C1 [Jasplakinolide, jasplakinolide]
EC50 (Dd2-Pol δ parent line): 25.1 ± 1.4 nM | fractional inhibitory concentration (FIC) (P. falciparum; combination with NPDG-F): highest FIC values overall | IC50 (P. falciparum; single compounds, dose–response, Fig. 3A, read-out: Mean IC50 ± SEM): 58 ± 17 nM | EC50 ([1]; clone 1-C7, A171S (8%), A171V (92%), I290L): 25.2 ± 0.4 nM | Fold change ([1]; clone 1-C7 vs Dd2-Pol δ parent): 1.0 | EC50 ([1]; clone 1-D6, A171S (3%), A171V (97%), I290L): 27.6 ± 4 nM | Fold change ([1]; clone 1-D6 vs Dd2-Pol δ parent): 1.1 | EC50 ([1]; clone 1-D7, A171S (22%), A171V (78%), I290L): 25.9 ± 0.8 nM | Fold change ([1]; clone 1-D7 vs Dd2-Pol δ parent): 1.0 | EC50 ([1]; clone 1-F3, A171S (4%), A171V (96%), I290L): 30.7 ± 3.2 nM | Fold change ([1]; clone 1-F3 vs Dd2-Pol δ parent): 1.2 | EC50 ([1]; clone 2-C4, A136S): 22.4 nM | Fold change ([1]; clone 2-C4 vs Dd2-Pol δ parent): 0.9 | EC50 ([1]; clone 2-F5, A136S): 25.1 ± 2.9 nM | Fold change ([1]; clone 2-F5 vs Dd2-Pol δ parent): 1.0 | EC50 ([1]; clone 3-C3, A136S): 24 nM | Fold change ([1]; clone 3-C3 vs Dd2-Pol δ parent): 1.0 | EC50 ([1]; clone 3-C5, A136S): 25.4 ± 2.1 nM | Fold change ([1]; clone 3-C5 vs Dd2-Pol δ parent): 1.0

C=C1[C@@H](C)[C@H]2[C@H](Cc3ccccc3)NC(=O)[C@]23[C@H](OC(C)=O)/C=C/[C@@](C)(O)C(=O)[C@@H](C)C/C=C/[C@H]3[C@@H]1O [Cytochalasin D, cytochalasin D]
Kd (barbed end of F-actin): ~2 nM | EC50 (Dd2-Pol δ parent line; Plasmodium falciparum): 17.3 ± 0.5 nM | cross-resistance of NPDG-F-resistant clones [1]: cross-resistant | average EC50 shift, clones from flasks 2 and 3 ([1]; A136S): 3.9 fold | average EC50 shift, clones from flask 1 ([1]; A171V/S and I290L clones): 20 fold | EC50 ([1]; Plasmodium falciparum, DD2, clone 1-C7, A171S (8%), A171V (92%), I290L): 302 ± 8.8 nM | EC50 ([1]; Plasmodium falciparum, DD2, clone 1-D6, A171S (3%), A171V (97%), I290L): 317 ± 9.2 nM | EC50 ([1]; Plasmodium falciparum, DD2, clone 1-D7, A171S (22%), A171V (78%), I290L): 402 ± 7 nM | EC50 ([1]; Plasmodium falciparum, DD2, clone 1-F3, A171S (4%), A171V (96%), I290L): 367 ± 7.8 nM | EC50 ([1]; Plasmodium falciparum, DD2, clone 2-C4, A136S): 60.8 ± 0.8 nM | EC50 ([1]; Plasmodium falciparum, DD2, clone 2-F5, A136S): 71.3 ± 1.7 nM | EC50 ([1]; Plasmodium falciparum, DD2, clone 3-C3, A136S): 66.4 ± 0.2 nM | EC50 ([1]; Plasmodium falciparum, DD2, clone 3-C5, A136S): 73.2 ± 0.7 nM | Fold change ([1]; clone 1-C7 vs Dd2-Pol δ parent): 17.5 | Fold change ([1]; clone 1-D6 vs Dd2-Pol δ parent): 18.3 | Fold change ([1]; clone 1-D7 vs Dd2-Pol δ parent): 23.3 | Fold change ([1]; clone 1-F3 vs Dd2-Pol δ parent): 21.2 | Fold change ([1]; clone 2-C4 vs Dd2-Pol δ parent): 3.5 | Fold change ([1]; clone 2-F5 vs Dd2-Pol δ parent): 4.1 | Fold change ([1]; clone 3-C3 vs Dd2-Pol δ parent): 3.8 | Fold change ([1]; clone 3-C5 vs Dd2-Pol δ parent): 4.2
